Experiments:
Conditions in all cases: read-out: IZ
Escherichia coli = assay: Antibacterial activity against Escherichia coli at 1 ug/disc after 24 to 48 hrs
Staphylococcus aureus = assay: Antibacterial activity against Staphylococcus aureus at 1 ug/disc after 24 to 48 hrs
Pseudomonas aeruginosa = assay: Antibacterial activity against Pseudomonas aeruginosa at 1 ug/disc after 24 to 48 hrs
Bacillus subtilis = assay: Antibacterial activity against Bacillus subtilis at 1 ug/disc after 24 to 48 hrs
Candida albicans = assay: Antifungal activity against Candida albicans at 10 ug/disc after 24 to 48 hrs; format: functional

| Compound | zone of inhibition at 1 µg/disc (Escherichia coli) | zone of inhibition at 1 µg/disc (Staphylococcus aureus) | zone of inhibition at 1 µg/disc (Pseudomonas aeruginosa) | zone of inhibition at 1 µg/disc (Bacillus subtilis) | zone of inhibition at 10 µg/disc (Candida albicans) |
| --- | --- | --- | --- | --- | --- |
| O=C(O)c1cn(C2CC2)c2cc(N3CCNCC3)c(F)cc2c1=O [CIPROFLOXACIN] | 16 mm | 16 mm | 17 mm | 17 mm | – |
| Clc1ccccc1C(c1ccccc1)(c1ccccc1)n1ccnc1 [CLOTRIMAZOLE] | – | – | – | – | 12 mm |
